For experiment [1], the system named is MDA-MB-435S.luc xenograft. Kind of experiment: MDA-MB-435S.luc xenograft, βCG fusion constructs. It counts as in vivo, Nu/Nu mice. Particulars: vs baseline and saline controls. The procedure: Female Nu/Nu mice were injected subcutaneously with a MDA-MB-435S.luc/Matrigel HC suspension (1×10^6 cells). In brief, treatment started on day 13 after tumor cell injection and continued on day 19 and 25. […] The doses for weekly injections were 5, 1 and 0.01 mg/kg body weight, given as a bolus single injection.
The effect of cytolytic peptide injections on the primary tumors is illustrated in FIG. 8. In brief, the FIGS. 8A-8C show tumor volume during the course of the study for each individual peptide. FIGS. 8D-8G show tumor characteristics at necropsy; tumor volume (D), tumor weight (E), live tumor cells (F), tumor conditions (G).
Treatment efficacy was calculated as difference between measurements at the beginning of treatment compared to the measurement at the end of study (FIG. 8H-8I). […] Viability of cells in the tumors was determined at the end of the study when tumors were measured for luciferase activity.

Experiment [2] relates to murine ovarian cancer cells. Nature of the experiment: EP-100 cytotoxicity and LHRH-R specificity in murine ovarian cancer cells. It counts as cell-based. The conditions noted are these: ID8 cells, EP-100, 24 hr. From the text:
To identify the direct effects of EP-100 on cancer cells, murine ovarian cancer cell lines were used for in vitro experiments. […] The level of expression of LHRH-R in murine ovarian cancer cells using RT-PCR and Western blot analysis. […] Indeed, LHRH-R was expressed mainly on the membrane of cancer cells (FIGS. 14D and 14E). Human SKOV3ipl ovarian cancer cells and immortalized murine 3T3 fibroblasts were used as negative controls.
To determine whether the antitumor EP-100 efficacy was specific to LHRH-R expression, we silenced LHRH-R using siRNA (FIG. 15A). […].

The test system of the next experiment is 242. Nature of the experiment: Cytotoxicity in cell line 242 (Table 7). It counts as cell-based, murine. Particulars: 242, 24 h; read-out: In vitro activity (IC50).
The next experiment deals with IG10. Nature of the experiment: Cytotoxicity in IG10 murine ovarian cancer cells (24 h). Particulars: IG10, 24 h; read-out: In vitro activity (IC50). It counts as cell-based. The protocol: Murine ovarian cancer cell lines (ID8, IG10, IF5, and 2Cl2) were grown in RPMI 1640 media with 10% Fetal Bovine Serum. Cells were typically seeded (3000 cells per well) into 96 well plates and media was replaced after 48 hours of incubation. […] Phor18-LHRH was provided in lyophilized form was dissolved in saline and added to cells. The duration of incubation was 24 h at 37° C. Cell viability was assessed after 24 hours using a luminometric assays (Promega, CellTiter-0Glo 2.0, G9243). Controls contained saline or 0.1% triton as reference for 0 and 100% cell death, respectively.
Data were processed and analyzed using GraphPad Prism version 7.00 for Windows (GraphPad Software, San Diego California). Statistical analysis for significance was determined by a two-tailed Student's T-test. Each study was conducted to achieve an […] of at least 6.
In vitro activities were expressed as IC50 values for each cell line, time point and compound tested that were calculated using the Hill equation (Graph Pad Prizm software).

The subject of experiment [3] is MDA-MB-435S.luc xenograft. Kind of experiment: MDA-MB-435S.luc xenograft, LHRH fusion constructs. It counts as in vivo, Nu/Nu mice. The procedure:
For LHRH fusion constructs, the mouse xenograft model for breast cancer was used. In brief. Nu/Nu female mice, outbred strain, age 5 weeks (Charles River) were injected subcutaneously with a MDA-MB-435S.luc/Matrigel suspension (1×10^6 cells). Treatment was started on day 21 after tumor cell injection and continued on day 26 and 29. The doses for weekly fusion construct injections were 2, 0.2 and 0.02 mg/kg body weight, given as a bolus single injection. All mice were necropsied 34 days after tumor cell injection-baseline values for tumor weights were obtained by sacrificing 8 mice at treatment start. Primary tumors, liver, kidney, pancreas, heart, lung, and spleen were collected and prepared for histological evaluation in formalin. Tumor weights were recorded at necropsy, part of the tumors were frozen at −80 ° C. for luciferase assay determination.
Characteristics of tumors at necropsy are summarized in FIG. 10; (A) tumor weight, (B) changes of tumor weights compared to baseline, (C) total number of live tumor cells, (D) changes of total live tumor cells compared to baseline, and (E) bodyweights at baseline and necropsy. Viability of tumor cells was determined at the end of the study when tumors were measured for luciferase activity. Treatment efficacy was calculated as difference between measurements at the beginning of treatment compared to the measurement at the end of study (FIG. 10B and 10D).

The next experiment has as its system MDA-MB-231. Kind of experiment: Cytotoxicity in MDA-MB-231 breast cancer cells. It is filed as cell-based. Particulars: MDA-MB-231 breast cancer cell line; read-out: IC50 in Human Cancer Cell Lines. The protocol:
(§1) MDA-MB-435S.luc cells were grown in Leibovitz's L 15 medium, 10% fetal bovine serum, 0.01 mg/ml bovine insulin, 100 IU/ml penicillin, 100 microg/ml streptomycin. The cells were cultured in tight closed flasks. The incubations were conducted using 96 well plates at 10,000 cells per well. Cells were typically seeded into 96 well plates and media was replaced after 48 hours of incubation. Each assay was conducted at increasing concentrations of 0, 0.001, 0.01, 0.05, 0.1, 0.5, 1, 2, 5, 10 and 100 micromolar doses of lytic peptide-binding domain conjugate. Each lytic peptide-binding domain conjugate provided in lyophilized form and was freshly dissolved in saline and added to cells. The duration of incubation was typically 24 h, and cell viability assays were conducted using formazan conversion assays (MTT assay). Controls contained saline or 0.1% triton as reference for 0 and 100% cell death, respectively.
(§2) To ascertain the IC50 of various fusion constructs on different human cancer cell lines compared to cisplatinum, IC50 of fusion constructs were evaluated as in Table 3.

For the next experiment, the system named is SKOV-3. Nature of the experiment: Cytotoxicity in SKOV-3 ovarian cancer cells. It is filed as cell-based. Particulars: SKOV-3 ovarian cancer cell line; read-out: IC50 in Human Cancer Cell Lines. The protocol:
as §1, §2

In the case of “KFAKFAKKFAKFAKKFAK [Phor18, reference compound]”, the tumor volume result in experiment [1] is “ineffective in reducing the xenograft volume”.

Usually IC50 stands for the concentration at which inhibition is half-maximal. With “KFAKFAKKFAKFAKKFAKQHWSYGLRPG [Phor18-LHRH]”, the “viability of cells in which LHRH-R was silenced (siRNA)” value in experiment [2] is “remained viable”. The half-maximal inhibitory concentration (IC50) was 1.38 µM in the experiment on 242, 1.03 µM in the experiment on IG10, 5.5 ± 1.2 µM in the experiment on MDA-MB-231 and 11.8 ± 0.3 µM in the experiment on SKOV-3. Further, in experiment [3] (0.02, 0.2 and 2 mg/kg, vs baseline, saline and Phor21-βCG-ala), the “treatment efficacy (tumor weight, live tumor cells)” value was “Equally effective as Phor21-βCG-ala”. The tumor volume entry in experiment [3] (during treatment and after 30 days) is recorded as “smallest tumor volumes”. Besides, the “concentrations resulting in tumor weights similar to baseline” value in experiment [3] (mouse, in vivo) is 0.2 mg/kg. For the same sequence, the “In vivo Performance compared to 33” value in experiment [3] (tumor weight and live tumor cell reduction vs baseline compared to peptide 33, LHRH construct study) was determined as 1.

The record behind these values is patent US20240228542A1, “LYTIC DOMAIN FUSION CONSTRUCTS, CHECKPOINT INHIBITORS, AND METHODS OF MAKING AND USING SAME” (A28 Therapeutics Inc., priority 2020, published 2024).
